Key:
Assay type in all cases: in vivo
[1] = system: rice leafroller (Cnaphalocrocis medinalis); assay: Insecticidal effect on rice leafroller (Test Example 3); conditions: 500 ppm, rice lamina dip, third-instar larvae of rice leafroller, 4 days after inoculation, 25° C., humidity 70%
Procedure, shortened: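 Groups of 10 third-instar larvae, in triplicate, are placed on air-dried lamina resting on wet filter paper. Incubation runs four days at 25° C with 70% humidity before survivors and dead are tallied.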

[2] = system: diamondback moth (Plutella xylostella); assay: Insecticidal effect on diamondback moth (Test Example 1); conditions: diamondback moth; judged by the criterion of Test Example 1
Procedure, shortened: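 Read-out was mortality from hatched-insect counts taken 6 days after the egg-bearing cabbage seedling was immersed, graded by set criteria. Seedlings were air-dried and kept at 25° C after treatment. Groups of 10 insects, in triplicate.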

[3] = system: common cutworm (Spodoptera Litura); assay: Insecticidal effect on common cutworm (Test Example 2); conditions: 500 ppm, cabbage leaf dip, second-instar larvae of common cutworm, 8 days after inoculation, 25° C.
Procedure, shortened: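 Mortality was scored 8 days post-inoculation, using three groups of 10 second-instar larvae kept at 25 °C in closed 9 cm dishes on air-dried treated material. The insecticidal effect was graded from calculated mortality by a set criterion.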

Cc1cc(C(F)(F)C(F)(F)F)ccc1NC(=O)c1cccc(Cl)c1C(=O)NC(C)(C)C#Cc1cccs1 [compound 1479]
A (100): Insecticidal effect (Test Example 3), judged from mortality [1] | Insecticidal effect (Test Example 1), judged from mortality [2] | Insecticidal effect (Test Example 2), judged from mortality [3]

Cc1cc(C(F)(F)C(F)(F)F)ccc1NC(=O)c1cccc(I)c1C(=O)N[C@H](C)CO [compound 1481]
A (100): Insecticidal effect (Test Example 3), judged from mortality [1] | Insecticidal effect (Test Example 1), judged from mortality [2] | Insecticidal effect (Test Example 2), judged from mortality [3]

Cc1cc(C(F)(F)C(F)(F)F)ccc1NC(=O)c1cccc(I)c1C(=O)N[C@@H](C)CO [compound 1482]
A (100): Insecticidal effect (Test Example 3), judged from mortality [1] | Insecticidal effect (Test Example 1), judged from mortality [2] | Insecticidal effect (Test Example 2), judged from mortality [3]

Cc1cc(C(F)(F)C(F)(F)F)ccc1NC(=O)c1cccc(Cl)c1C(=O)NC(C)(C)c1ccc(Cl)cc1 [compound 1484]
A (100): Insecticidal effect (Test Example 3), judged from mortality [1] | Insecticidal effect (Test Example 1), judged from mortality [2] | Insecticidal effect (Test Example 2), judged from mortality [3]

Cc1cc(C(F)(F)C(F)(F)F)ccc1NC(=O)c1cccc(Cl)c1C(=O)NC(C)(C)c1cccc(Cl)c1 [compound 1485]
A (100): Insecticidal effect (Test Example 3), judged from mortality [1] | Insecticidal effect (Test Example 1), judged from mortality [2] | Insecticidal effect (Test Example 2), judged from mortality [3]

CCNC(=O)c1c(Cl)cccc1C(=O)Nc1ccc(C(F)(F)C(F)(F)F)cc1Cl [compound 1489]
A (100): Insecticidal effect (Test Example 3), judged from mortality [1] | Insecticidal effect (Test Example 1), judged from mortality [2] | Insecticidal effect (Test Example 2), judged from mortality [3]

CCCNC(=O)c1c(Cl)cccc1C(=O)Nc1ccc(C(F)(F)C(F)(F)F)cc1F [compound 1491]
A (100): Insecticidal effect (Test Example 3), judged from mortality [1] | Insecticidal effect (Test Example 1), judged from mortality [2] | Insecticidal effect (Test Example 2), judged from mortality [3]

CC(C)NC(=O)c1c(Cl)cccc1C(=O)Nc1ccc(C(F)(F)C(F)(F)C(F)(F)F)cc1F [compound 1494]
A (100): Insecticidal effect (Test Example 3), judged from mortality [1] | Insecticidal effect (Test Example 1), judged from mortality [2] | Insecticidal effect (Test Example 2), judged from mortality [3]

CCc1cc(C(F)(F)C(F)(F)F)ccc1NC(=O)c1cccc(Cl)c1C(=O)NC(C)C [compound 1495]
A (100): Insecticidal effect (Test Example 3), judged from mortality [1] | Insecticidal effect (Test Example 1), judged from mortality [2] | Insecticidal effect (Test Example 2), judged from mortality [3]

CC(C)(C)NC(=O)c1c(Cl)cccc1C(=O)Nc1ccc(C(F)(F)C(F)(F)C(F)(F)F)cc1F [compound 1496]
A (100): Insecticidal effect (Test Example 3), judged from mortality [1] | Insecticidal effect (Test Example 1), judged from mortality [2] | Insecticidal effect (Test Example 2), judged from mortality [3]

CCc1cc(C(F)(F)C(F)(F)F)ccc1NC(=O)c1cccc(Cl)c1C(=O)NC(C)(C)C [compound 1497]
A (100): Insecticidal effect (Test Example 3), judged from mortality [1] | Insecticidal effect (Test Example 1), judged from mortality [2] | Insecticidal effect (Test Example 2), judged from mortality [3]

CCC(C)NC(=O)c1c(Cl)cccc1C(=O)Nc1ccc(C(F)(F)C(F)(F)F)cc1F (stereo not drawn) [compound 1498]
A (100): Insecticidal effect (Test Example 3), judged from mortality [1] | Insecticidal effect (Test Example 1), judged from mortality [2] | Insecticidal effect (Test Example 2), judged from mortality [3]

CCC(C)NC(=O)c1c(Cl)cccc1C(=O)Nc1ccc(C(F)(F)C(F)(F)F)cc1Cl (stereo not drawn) [compound 1499]
A (100): Insecticidal effect (Test Example 3), judged from mortality [1] | Insecticidal effect (Test Example 1), judged from mortality [2] | Insecticidal effect (Test Example 2), judged from mortality [3]

— patent US6362369B1, “Phthalic acid diamide derivatives fluorine-containing aniline compounds as starting material, agricultural and horticultural insecticides, and a method for application of the insecticides” (Nihon Nohyaku Co., Ltd., priority 1997, dated 2002)
